From US7118895B2, “Process for producing aglycon by using diglycosidase and flavor-improved food containing the aglycon and converting agent to be used in the process” (Amano Enzyme Inc., priority 2000, dated 2006)

Tested on: Crude diglycosidase
Assay: Examination of pH in the conversion into isoflavone aglycons by diglycosidase using soybean materials
Assay type: biochemical, Penicillium multicolor IAM7153
Details: for existing ratio of aglycon of each isoflavone family / Decomposition efficiency of glycitin family in roasted soy flour / Decomposition efficiency of glycitin family in soymilk: 55° C.
Method in brief: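 Soybean materials (roasted soy flour, soymilk, defatted soybean, concentrated soy protein) suspended and adjusted to pH 2–11. Crude diglycosidase added at 1.88 AU/mL enzyme solution and reacted at 55° C. Ethanol-stopped at 0, 1, 3 and 6 h; isoflavone glycosides and aglycons detected by HPLC.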

[1] = pH6.6, heat treatment of enzyme: no, reaction time 0 h
[2] = pH6.6, heat treatment of enzyme: no, reaction time 1 h
[3] = pH6.6, heat treatment of enzyme: no, reaction time 3 h
[4] = pH6.6, heat treatment of enzyme: no, reaction time 6 h
[5] = pH6.6, heat treatment of enzyme: yes, reaction time 6 h

existing ratio of aglycon of each isoflavone family (concentrated soybean protein, pH 3.7 for 6 hours): 78%
existing ratio of aglycon of each isoflavone family (defatted soybean, pH 3.4 for 6 hours): 68%
Decomposition efficiency of glycitin family in concentrated soybean protein (pH1.6, heat treatment of enzyme: no, reaction time 0 h): 11.3%
Decomposition efficiency of glycitin family in concentrated soybean protein (pH1.6, heat treatment of enzyme: no, reaction time 1 h): 11.6%
Decomposition efficiency of glycitin family in concentrated soybean protein (pH1.6, heat treatment of enzyme: no, reaction time 3 h): 11.7%
Decomposition efficiency of glycitin family in concentrated soybean protein (pH1.6, heat treatment of enzyme: no, reaction time 6 h): 11.7%
Decomposition efficiency of glycitin family in concentrated soybean protein (pH1.6, heat treatment of enzyme: yes, reaction time 6 h): 10.8%
Decomposition efficiency of glycitin family in roasted soy flour (pH2, heat treatment of enzyme no, reaction time 0 h): 7.9
Decomposition efficiency of glycitin family in roasted soy flour (pH2, heat treatment of enzyme no, reaction time 1 h): 9.4
Decomposition efficiency of glycitin family in roasted soy flour (pH2, heat treatment of enzyme no, reaction time 3 h): 9.5
Decomposition efficiency of glycitin family in roasted soy flour (pH2, heat treatment of enzyme no, reaction time 6 h): 10.1
Decomposition efficiency of glycitin family in roasted soy flour (pH2, heat treatment of enzyme yes, reaction time 6 h): 10.4
Decomposition efficiency of glycitin family in soymilk (pH2.3, heat treatment of enzyme no, reaction time 0 h): 7.2
Decomposition efficiency of glycitin family in soymilk (pH2.3, heat treatment of enzyme no, reaction time 1 h): 48.7
Decomposition efficiency of glycitin family in soymilk (pH2.3, heat treatment of enzyme no, reaction time 3 h): 52.3
Decomposition efficiency of glycitin family in soymilk (pH2.3, heat treatment of enzyme no, reaction time 6 h): 53.5
Decomposition efficiency of glycitin family in soymilk (pH2.3, heat treatment of enzyme yes, reaction time 6 h): 6.9
Decomposition efficiency of glycitin family in defatted soybean (pH2.6, heat treatment of enzyme: no, reaction time 0 h): not detected
Decomposition efficiency of glycitin family in defatted soybean (pH2.6, heat treatment of enzyme: no, reaction time 1 h): not detected
Decomposition efficiency of glycitin family in defatted soybean (pH2.6, heat treatment of enzyme: no, reaction time 3 h): not detected
Decomposition efficiency of glycitin family in defatted soybean (pH2.6, heat treatment of enzyme: no, reaction time 6 h): not detected
Decomposition efficiency of glycitin family in defatted soybean (pH2.6, heat treatment of enzyme: yes, reaction time 6 h): not detected
Decomposition efficiency of glycitin family in concentrated soybean protein (pH2.7, heat treatment of enzyme: no, reaction time 0 h): 11.3%
Decomposition efficiency of glycitin family in concentrated soybean protein (pH2.7, heat treatment of enzyme: no, reaction time 1 h): 25.0%
Decomposition efficiency of glycitin family in concentrated soybean protein (pH2.7, heat treatment of enzyme: no, reaction time 3 h): 25.7%
Decomposition efficiency of glycitin family in concentrated soybean protein (pH2.7, heat treatment of enzyme: no, reaction time 6 h): 29.2%
Decomposition efficiency of glycitin family in concentrated soybean protein (pH2.7, heat treatment of enzyme: yes, reaction time 6 h): 11.5%
Decomposition efficiency of glycitin family in roasted soy flour (pH3, heat treatment of enzyme no, reaction time 0 h): 7.9
Decomposition efficiency of glycitin family in roasted soy flour (pH3, heat treatment of enzyme no, reaction time 1 h): 61.3
Decomposition efficiency of glycitin family in roasted soy flour (pH3, heat treatment of enzyme no, reaction time 3 h): 69.2
Decomposition efficiency of glycitin family in roasted soy flour (pH3, heat treatment of enzyme no, reaction time 6 h): 68.3
Decomposition efficiency of glycitin family in roasted soy flour (pH3, heat treatment of enzyme yes, reaction time 6 h): 9.3
Decomposition efficiency of glycitin family in defatted soybean (pH3.4, heat treatment of enzyme: no, reaction time 0 h): not detected
Decomposition efficiency of glycitin family in defatted soybean (pH3.4, heat treatment of enzyme: no, reaction time 1 h): not detected
Decomposition efficiency of glycitin family in defatted soybean (pH3.4, heat treatment of enzyme: no, reaction time 3 h): not detected
Decomposition efficiency of glycitin family in defatted soybean (pH3.4, heat treatment of enzyme: no, reaction time 6 h): not detected
Decomposition efficiency of glycitin family in defatted soybean (pH3.4, heat treatment of enzyme: yes, reaction time 6 h): not detected
Decomposition efficiency of glycitin family in soymilk (pH3.5, heat treatment of enzyme no, reaction time 0 h): 7.2
Decomposition efficiency of glycitin family in soymilk (pH3.5, heat treatment of enzyme no, reaction time 1 h): 78.1
Decomposition efficiency of glycitin family in soymilk (pH3.5, heat treatment of enzyme no, reaction time 3 h): 100.0
Decomposition efficiency of glycitin family in soymilk (pH3.5, heat treatment of enzyme no, reaction time 6 h): 100.0
Decomposition efficiency of glycitin family in soymilk (pH3.5, heat treatment of enzyme yes, reaction time 6 h): 7.6
Decomposition efficiency of glycitin family in concentrated soybean protein (pH3.7, heat treatment of enzyme: no, reaction time 0 h): 11.1%
Decomposition efficiency of glycitin family in concentrated soybean protein (pH3.7, heat treatment of enzyme: no, reaction time 1 h): 66.7%
Decomposition efficiency of glycitin family in concentrated soybean protein (pH3.7, heat treatment of enzyme: no, reaction time 3 h): 73.5%
Decomposition efficiency of glycitin family in concentrated soybean protein (pH3.7, heat treatment of enzyme: no, reaction time 6 h): 77.5%
Decomposition efficiency of glycitin family in concentrated soybean protein (pH3.7, heat treatment of enzyme: yes, reaction time 6 h): 11.3%
Decomposition efficiency of glycitin family in roasted soy flour (pH4, heat treatment of enzyme no, reaction time 0 h): 8.6
Decomposition efficiency of glycitin family in roasted soy flour (pH4, heat treatment of enzyme no, reaction time 1 h): 81.2
Decomposition efficiency of glycitin family in roasted soy flour (pH4, heat treatment of enzyme no, reaction time 3 h): 91.8
Decomposition efficiency of glycitin family in roasted soy flour (pH4, heat treatment of enzyme no, reaction time 6 h): 100.0
Decomposition efficiency of glycitin family in roasted soy flour (pH4, heat treatment of enzyme yes, reaction time 6 h): 9.0
Decomposition efficiency of glycitin family in soymilk (pH4.8, heat treatment of enzyme no, reaction time 0 h): 6.2
Decomposition efficiency of glycitin family in soymilk (pH4.8, heat treatment of enzyme no, reaction time 1 h): 63.0
Decomposition efficiency of glycitin family in soymilk (pH4.8, heat treatment of enzyme no, reaction time 3 h): 78.9
Decomposition efficiency of glycitin family in soymilk (pH4.8, heat treatment of enzyme no, reaction time 6 h): 91.7
Decomposition efficiency of glycitin family in soymilk (pH4.8, heat treatment of enzyme yes, reaction time 6 h): 6.5
Decomposition efficiency of glycitin family in defatted soybean (pH4.8, heat treatment of enzyme: no, reaction time 0 h): 36.0%
Decomposition efficiency of glycitin family in defatted soybean (pH4.8, heat treatment of enzyme: no, reaction time 1 h): 59.9%
Decomposition efficiency of glycitin family in defatted soybean (pH4.8, heat treatment of enzyme: no, reaction time 3 h): 62.5%
Decomposition efficiency of glycitin family in defatted soybean (pH4.8, heat treatment of enzyme: no, reaction time 6 h): 68.1%
Decomposition efficiency of glycitin family in defatted soybean (pH4.8, heat treatment of enzyme: yes, reaction time 6 h): 43.8%
Decomposition efficiency of glycitin family in roasted soy flour (pH5, heat treatment of enzyme no, reaction time 0 h): 8.6
Decomposition efficiency of glycitin family in roasted soy flour (pH5, heat treatment of enzyme no, reaction time 1 h): 77.1
Decomposition efficiency of glycitin family in roasted soy flour (pH5, heat treatment of enzyme no, reaction time 3 h): 93.5
Decomposition efficiency of glycitin family in roasted soy flour (pH5, heat treatment of enzyme no, reaction time 6 h): 100.0
Decomposition efficiency of glycitin family in roasted soy flour (pH5, heat treatment of enzyme yes, reaction time 6 h): 9.4
Decomposition efficiency of glycitin family in concentrated soybean protein (pH5.1, heat treatment of enzyme: no, reaction time 0 h): 11.1%
Decomposition efficiency of glycitin family in concentrated soybean protein (pH5.1, heat treatment of enzyme: no, reaction time 1 h): 62.1%
Decomposition efficiency of glycitin family in concentrated soybean protein (pH5.1, heat treatment of enzyme: no, reaction time 3 h): 73.4%
Decomposition efficiency of glycitin family in concentrated soybean protein (pH5.1, heat treatment of enzyme: no, reaction time 6 h): 78.5%
Decomposition efficiency of glycitin family in concentrated soybean protein (pH5.1, heat treatment of enzyme: yes, reaction time 6 h): 11.5%
Decomposition efficiency of glycitin family in defatted soybean (pH5.4, heat treatment of enzyme: no, reaction time 0 h): 36.0%
Decomposition efficiency of glycitin family in defatted soybean (pH5.4, heat treatment of enzyme: no, reaction time 1 h): 54.9%
Decomposition efficiency of glycitin family in defatted soybean (pH5.4, heat treatment of enzyme: no, reaction time 3 h): not detected
Decomposition efficiency of glycitin family in defatted soybean (pH5.4, heat treatment of enzyme: no, reaction time 6 h): 67.7%
Decomposition efficiency of glycitin family in defatted soybean (pH5.4, heat treatment of enzyme: yes, reaction time 6 h): 60.7%
Decomposition efficiency of glycitin family in soymilk (pH6.2, heat treatment of enzyme no, reaction time 0 h): 6.2
Decomposition efficiency of glycitin family in soymilk (pH6.2, heat treatment of enzyme no, reaction time 1 h): 53.6
Decomposition efficiency of glycitin family in soymilk (pH6.2, heat treatment of enzyme no, reaction time 3 h): 65.5
Decomposition efficiency of glycitin family in soymilk (pH6.2, heat treatment of enzyme no, reaction time 6 h): 70.4
Decomposition efficiency of glycitin family in soymilk (pH6.2, heat treatment of enzyme yes, reaction time 6 h): 8.2
Decomposition efficiency of glycitin family in roasted soy flour (pH6.5, heat treatment of enzyme no, reaction time 0 h): 8.8
Decomposition efficiency of glycitin family in roasted soy flour (pH6.5, heat treatment of enzyme no, reaction time 1 h): 65.0
Decomposition efficiency of glycitin family in roasted soy flour (pH6.5, heat treatment of enzyme no, reaction time 3 h): 80.3
Decomposition efficiency of glycitin family in roasted soy flour (pH6.5, heat treatment of enzyme no, reaction time 6 h): 88.1
Decomposition efficiency of glycitin family in roasted soy flour (pH6.5, heat treatment of enzyme yes, reaction time 6 h): 9.8
Decomposition efficiency of glycitin family in concentrated soybean protein [1]: 11.3%
Decomposition efficiency of glycitin family in defatted soybean [1]: 60.4%
Decomposition efficiency of glycitin family in concentrated soybean protein [2]: 42.2%
Decomposition efficiency of glycitin family in defatted soybean [2]: 47.1%
Decomposition efficiency of glycitin family in concentrated soybean protein [3]: 60.3%
Decomposition efficiency of glycitin family in defatted soybean [3]: 46.4%
Decomposition efficiency of glycitin family in concentrated soybean protein [4]: 68.1%
Decomposition efficiency of glycitin family in defatted soybean [4]: 41.9%
Decomposition efficiency of glycitin family in concentrated soybean protein [5]: 11.1%
Decomposition efficiency of glycitin family in defatted soybean [5]: 49.7%
Decomposition efficiency of glycitin family in soymilk (pH7.2, heat treatment of enzyme no, reaction time 0 h): 6.1
Decomposition efficiency of glycitin family in soymilk (pH7.2, heat treatment of enzyme no, reaction time 1 h): 51.2
Decomposition efficiency of glycitin family in soymilk (pH7.2, heat treatment of enzyme no, reaction time 3 h): 53.8
Decomposition efficiency of glycitin family in soymilk (pH7.2, heat treatment of enzyme no, reaction time 6 h): 58.4
Decomposition efficiency of glycitin family in soymilk (pH7.2, heat treatment of enzyme yes, reaction time 6 h): 5.6
Decomposition efficiency of glycitin family in defatted soybean (pH7.8, heat treatment of enzyme: no, reaction time 0 h): 33.2%
Decomposition efficiency of glycitin family in defatted soybean (pH7.8, heat treatment of enzyme: no, reaction time 1 h): 42.5%
Decomposition efficiency of glycitin family in defatted soybean (pH7.8, heat treatment of enzyme: no, reaction time 3 h): 46.8%
Decomposition efficiency of glycitin family in defatted soybean (pH7.8, heat treatment of enzyme: no, reaction time 6 h): 50.9%
Decomposition efficiency of glycitin family in defatted soybean (pH7.8, heat treatment of enzyme: yes, reaction time 6 h): 44.2%
Decomposition efficiency of glycitin family in roasted soy flour (pH8.5, heat treatment of enzyme no, reaction time 0 h): 9.6
Decomposition efficiency of glycitin family in roasted soy flour (pH8.5, heat treatment of enzyme no, reaction time 1 h): 28.2
Decomposition efficiency of glycitin family in roasted soy flour (pH8.5, heat treatment of enzyme no, reaction time 3 h): 40.1
Decomposition efficiency of glycitin family in roasted soy flour (pH8.5, heat treatment of enzyme no, reaction time 6 h): 47.4
Decomposition efficiency of glycitin family in roasted soy flour (pH8.5, heat treatment of enzyme yes, reaction time 6 h): 9.1
Decomposition efficiency of glycitin family in concentrated soybean protein (pH8.6, heat treatment of enzyme: no, reaction time 0 h): 11.7%
Decomposition efficiency of glycitin family in concentrated soybean protein (pH8.6, heat treatment of enzyme: no, reaction time 1 h): 15.4%
Decomposition efficiency of glycitin family in concentrated soybean protein (pH8.6, heat treatment of enzyme: no, reaction time 3 h): 21.0%
Decomposition efficiency of glycitin family in concentrated soybean protein (pH8.6, heat treatment of enzyme: no, reaction time 6 h): 30.9%
Decomposition efficiency of glycitin family in concentrated soybean protein (pH8.6, heat treatment of enzyme: yes, reaction time 6 h): 11.3%
Decomposition efficiency of glycitin family in soymilk (pH11.6, heat treatment of enzyme no, reaction time 0 h): 6.2
Decomposition efficiency of glycitin family in soymilk (pH11.6, heat treatment of enzyme no, reaction time 1 h): 49.6
Decomposition efficiency of glycitin family in soymilk (pH11.6, heat treatment of enzyme no, reaction time 3 h): 53.5
Decomposition efficiency of glycitin family in soymilk (pH11.6, heat treatment of enzyme no, reaction time 6 h): 56.0
Decomposition efficiency of glycitin family in soymilk (pH11.6, heat treatment of enzyme yes, reaction time 6 h): 5.8
existing ratio of aglycon of each isoflavone family (roasted soy flour, pH 4 for 6 hours): 100%
existing ratio of aglycon of each isoflavone family (soymilk, pH 3.5 for 6 hours): 100%
SMILES: COc1cc2c(=O)c(-c3ccc(O)cc3)coc2cc1O [glycitein]
